How the values were obtained:
[1] = Solution test: time taken for complete dissolving in ethanol/water; type: physicochemical; conditions: 5 g in 95 g ethanol/water (equal weight contents), 20° C., stirred, optical determination
Description: The various rates of solution of a solids composition according to the invention according to Example 1a above and forms of I-menthol which are not according to the invention were compared.
For this, in each case 5 g I-menthol or 5 g of the I-menthol-containing solids composition according to the invention according to Example 1a were added to 95 g of a mixture, temperature-controlled at a constant 20° C., of equal weight contents of ethanol and water and the time taken for complete dissolving (optical determination) of the menthol and of the menthol-containing solids composition was determined.
The particular solution test was carried out in a glass beaker having a diameter of 5 cm and a filling height of 7 cm. The contents of the glass beaker were in each case stirred with a 4 cm long magnetic stirring fish at a magnetic stirrer speed of 4 revolutions per second during the solution test. The temperature was monitored with a Pt-100 thermometer, which was immersed 5 cm deep into the liquid, was placed at a distance of 1 cm from the glass beaker wall and simultaneously served as a baffle.
The size of the crystals here corresponded to the typical (commercially available) crystal geometry of natural I-menthol.

[2] = Storage test for caking or formation of lumps (optical and mechanical flowability check); type: physicochemical; conditions: storage times of more than three months
Description: In this context, a solid menthol component consisting of bodies in the form of crystals or pressed pieces was employed. The menthol-containing solids composition according to the invention which was investigated remained convenient and reliable to handle and pourable, flowable and meterable over the entire observation period.
This menthol-containing solids composition was packed in a plastic bag in a cube-shaped box and stored at 20° C. (bulk height: 50 cm). Every 14 days, the composition according to the invention was investigated optically and mechanically for its flowability.
I-Menthol (25 kg) in the form of freshly prepared needle-shaped crystals (for the particle distribution, see Example 1) was initially introduced into a mixer and mixed briefly and intensively with various amounts of magnesium oxide (calculated average particle size: 12.8 nm, specific BET surface area: 130 m^2/g, compare Example 1a). The content of magnesium oxide (solid anticaking agent) in the total solids mixture was 0.5 wt. %, 1 wt. %, 2 wt. % or 4 wt. %. The original menthol crystals were comminuted by the mixing operation (compare Example 1a). The menthol-containing solids compositions having various contents of magnesium oxide were each packed in a plastic bag in a cube-shaped box and stored at 20° C. (bulk height: 50 cm). […]

[3] = after 24 hours; cited from earlier work

Time taken for complete dissolving [1] [s] | formation of lumps and caking on storage [2] | Structure (SMILES) | adhesion and formation of lumps on storage [3]
255 | – | CC(C)[C@@H]1CC[C@@H](C)C[C@H]1O [Crystals of natural menthol, I-menthol] | –
170 | – | CC(C)[C@@H]1CC[C@@H](C)C[C@H]1O [Menthol crystals from Example 1, I-menthol] | –
280 | – | CC(C)[C@@H]1CC[C@@H](C)C[C@H]1O [Menthol crystals in lump form, obtained by storage of the me] [I-menthol] | –
504 | gradually form lumps and cake | CC1CCC(C(C)C)C(O)C1 (stereo not drawn) [Menthol] | –
– | – | CC(C)[C@@H]1CC[C@@H](C)C[C@H]1O [flaked I-menthol, I-menthol] | adhesion and formation of lumps
